GI50 and TGI data for six compounds are collected here from PubChem BioAssay (NCI).

As usually defined, the GI50 is the concentration that inhibits growth by half. By TGI is commonly meant the concentration giving total growth inhibition.

Some test systems named below: COLO 205 colon; HS 578T breast; KM12 colon; M14 melanoma; MCF7 breast; RPMI-8226 leukemia; SF-539 CNS; SK-OV-3 ovarian; SN12C renal; UACC-257 melanoma.
Test in all cases: DTP human tumour cell line panel, 48 h

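Briefly, cells in 96-well plates were exposed to five compound concentrations for 48 h, and endpoints were estimated by linear interpolation. GI50 marks 50% less growth. TGI: total growth inhibition.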 Where only a bound is given, the exact number is not on record here.

In the case of `CN1CCCNc2c(c(=O)c2=O)NCCCN(C)CCCNc2c(c(=O)c2=O)NCCCN(C)CCCNc2c(c(=O)c2=O)NCCCN(C)CCCNc2c(c(=O)c2=O)NCCCN(C)CCCNc2c(c(=O)c2=O)NCCCN(C)CCCNc2c(c(=O)c2=O)NCCCN(C)CCCNc2c(c(=O)c2=O)NCCC1`, the GI50 in the assay with COLO 205 colon is 2000 nM; in the assay with HS 578T breast it was 9150 nM; in the assay with KM12 colon, 3.63 µM; with M14 melanoma, 6.86 µM; with MCF7 breast, 6.52 µM; in the assay with RPMI-8226 leukemia it was 3.51 µM. Further, the GI50 in the assay with SF-539 CNS is 1.89 µM; in the assay with SK-OV-3 ovarian, 2460 nM; in the assay with SN12C renal it was 1.34 µM; in the assay on UACC-257 melanoma it was 3.61 µM. The total growth inhibition concentration (TGI) in the assay with COLO 205 colon turned out to be 6.13 µM; in the assay on HS 578T breast, 31.2 µM; with KM12 colon it was 18 µM; in the assay with M14 melanoma, 18.6 µM; with MCF7 breast, 19.5 µM; with RPMI-8226 leukemia it was 31.2 µM. Further, the total growth inhibition concentration (TGI) was 7.69 µM in the assay on SF-539 CNS, 8.29 µM with SK-OV-3 ovarian, 14.2 µM with SN12C renal and 27 µM with UACC-257 melanoma.
Consider `O=[N+]([O-])c1ccc(-c2nc(-c3ccccc3)c(-c3ccccc3)n2-c2ccccc2)cc1`, for which the GI50 was 1780 nM with COLO 205 colon; 2740 nM in the assay with HS 578T breast; 2.3 µM with KM12 colon; 3.57 µM in the assay on M14 melanoma; 2.04 µM with MCF7 breast; 1.53 µM in the assay with RPMI-8226 leukemia. Moreover, the GI50 was 2.02 µM in the assay with SF-539 CNS, 2030 nM in the assay with SK-OV-3 ovarian, 2.69 µM in the assay on SN12C renal and 2.39 µM in the assay on UACC-257 melanoma. In addition, the total growth inhibition concentration (TGI) in the assay with COLO 205 colon is 3.49 µM; in the assay with HS 578T breast, 14.4 µM; in the assay with KM12 colon it was 5.6 µM; in the assay with M14 melanoma, 16 µM; with MCF7 breast, 6.28 µM; in the assay on RPMI-8226 leukemia, 5.43 µM. The TGI with SF-539 CNS came out at 4.78 µM; in the assay with SK-OV-3 ovarian, 9.21 µM; with SN12C renal, 12.4 µM; in the assay on UACC-257 melanoma it was 5.87 µM.
Turning to `CC(C)[C@@]12C[C@@H](OC(=O)[C@H]3CO3)[C@@](C)(O1)[C@@H]1CC[C@@H](C)[C@H]1[C@@H]2OC(=O)/C=C/c1ccccc1`, the GI50 in the assay with COLO 205 colon was 23200 nM; in the assay with HS 578T breast, 73.6 nM; in the assay on KM12 colon it was 19.1 µM; in the assay on M14 melanoma, 27 µM; in the assay with MCF7 breast, 9.33 µM; in the assay on RPMI-8226 leukemia it was 13.5 µM. Further, the GI50 is 17.5 µM in the assay on SF-539 CNS, 18200 nM with SK-OV-3 ovarian, 11.9 µM in the assay with SN12C renal and 19.5 µM in the assay with UACC-257 melanoma. In addition, the TGI is > 65.1 µM with COLO 205 colon; 0.501 µM in the assay with HS 578T breast; > 60 µM in the assay on KM12 colon; > 100 µM in the assay with M14 melanoma; > 100 µM in the assay on MCF7 breast; 68.2 µM in the assay on RPMI-8226 leukemia. Also, the total growth inhibition concentration (TGI) is 43.3 µM in the assay on SF-539 CNS, 45.8 µM with SK-OV-3 ovarian, 41.2 µM in the assay with SN12C renal and 50.6 µM in the assay on UACC-257 melanoma.
Regarding `COc1ccc(NC(=O)n2nc(N)c3ccccc32)cc1OC`, the GI50 in the assay on COLO 205 colon was 85800 nM; with HS 578T breast, 43300 nM; in the assay on KM12 colon, 67.9 µM; with M14 melanoma it was 65 µM; with MCF7 breast it was 29.5 µM; in the assay on RPMI-8226 leukemia it was 21.1 µM. For the same compound, the GI50 is 95.9 µM with SF-539 CNS, > 100000 nM with SK-OV-3 ovarian, > 100 µM with SN12C renal and 73.6 µM in the assay on UACC-257 melanoma. Besides, the TGI with COLO 205 colon is > 100 µM; with HS 578T breast it was > 100 µM; in the assay on KM12 colon, > 100 µM; in the assay with M14 melanoma, > 100 µM; in the assay with MCF7 breast, > 100 µM; in the assay with RPMI-8226 leukemia it was 80.8 µM. In addition, the TGI with SF-539 CNS, in the assay on SK-OV-3 ovarian, in the assay with SN12C renal and in the assay with UACC-257 melanoma was > 100 µM throughout.
Regarding `COc1ccc(C(=O)c2ccc(OC)c(OC)c2OC)cc1`, the GI50 in the assay with COLO 205 colon was 1140 nM; in the assay on HS 578T breast, 915 nM; in the assay with KM12 colon it was 0.492 µM; in the assay with M14 melanoma, 1.32 µM; in the assay on MCF7 breast, 0.697 µM; in the assay on RPMI-8226 leukemia, 2.59 µM. For the same compound, the GI50 in the assay on SF-539 CNS was 1.79 µM; with SK-OV-3 ovarian it was 2060 nM; with SN12C renal it was 8.33 µM; with UACC-257 melanoma, 3.73 µM. Moreover, the concentration for total growth inhibition (TGI) in the assay with COLO 205 colon was 3.13 µM; in the assay with HS 578T breast, 3.65 µM; with KM12 colon, 25.2 µM; in the assay on M14 melanoma, 71.2 µM; in the assay with MCF7 breast it was > 100 µM; in the assay with RPMI-8226 leukemia, > 100 µM. Also, the TGI with SF-539 CNS is 8.2 µM; in the assay with SK-OV-3 ovarian it was 13.1 µM; in the assay on SN12C renal it was > 100 µM; with UACC-257 melanoma, > 100 µM.
With `COc1cc2c(cc1OCCOS(C)(=O)=O)N=C[C@@H]1CCCN1C2=O`, the TGI is > 100 µM in the assay on COLO 205 colon; 81 µM in the assay with HS 578T breast; > 100 µM in the assay on KM12 colon; 34.6 µM in the assay on M14 melanoma; > 100 µM in the assay on MCF7 breast; 48.8 µM in the assay with RPMI-8226 leukemia. Besides, the TGI was 47.2 µM in the assay on SF-539 CNS, > 100 µM in the assay on SK-OV-3 ovarian, > 100 µM in the assay on SN12C renal and 42.8 µM with UACC-257 melanoma. The GI50 with M14 melanoma was 18.7 µM; with RPMI-8226 leukemia, 12.2 µM; with SF-539 CNS it was 18.6 µM; with UACC-257 melanoma, 18.2 µM.
